Measurements taken from patent publication US6680025B2, “Device and method for photoactivation” (Cerus Corporation, priority 1989, dated 2004).

Legend:
HIV 115-mer PCR product = assay: Photoproduct sterilization of PCR (HIV 115-mer carryover); assay type: biochemical; settings: 30 cycles; for sterilization of PCR (Example 52): 100 μl/ml
Text: FIG. 36 describes a series of oligonucleotides that can be used with the PCR amplification technique. Two primers are described (SK-38 and SK-39) that are complementary to a segment of the HIV genome. Each primer is complementary to sequences at the […] of one of each of two strands of a 115 base pair long segment of the HIV genome. In addition, FIG. 36 describes a crosslinkable probe molecule which is capable of hybridizing and crosslinking to one strand of the 115-mer PCR product. Repeated thermal cycling of SK-38 and SK-39 in the presence of Taq polymerase, appropriate reagents, and a target polynucleotide containing at least the 115-mer segment bounded by SK-38/SK-39, will result in the synthesis of both strands of the 115-mer. Therefore, PCR amplification will occur, with both strands of the 115-mer accumulating geometrically. This is in contrast to the oligonuceleotides described in FIG. 26. Only one primer (SK-39) is described in FIG. 26 which is capable hybridizing to the 3′ end of the 71-mer target oligonucleotide (HRI-55). The lack of a second primer in the system of oligonucleotides described by FIG. 26 prevents this system from being amplified geometrically. Repeated thermal cycling of HRI-55 and SK-39 in the presence of Taq polymerase and appropriate reagents will result in the linear accumulation of the complement of HRI-55.
[…] Aliquots of AMDIIIP photoproduct and the unirradiated compound were added (by pipetting) at 50, 100, 200 and 300 μg/ml to 1 μl aliquots of a 10^6 delution of PCR product copies. PCR product was provided by a) preparing template, b) providing template, c) providing PCR reagents, d) providing polymerase, e) mixing PCR reagents, template, and polymerase to initiate PCR, f) cycling to synthesize PCR product.
Step a): Template Preparation. The templates were derived from actual patient samples. Ficoll-Hypaque separated peripheral blood mononuclear cells (PBMCs) are prepared from individuals enrolled in a longitudinal AIDS study. Approximately 1×10^6 cells are added to 10 ml of RPMI containing 10% fetal calf serum. The cells are pelleted by centrifugation at 20×g for 5 minutes and washed twice with 10 ml PBS. The cell pellet is resuspended in a solution of 50 mM KCl, 10 mM Tris-HCl (pH 8.3), 2.5 mM MgCl2 and subsequently lysed by the addition of 0.5% Tween 20 and 0.5% NP40. Samples are digested with 60 μg/ml proteinase K (Sigma) for 1 hour at 60° C. […]
Again, to evaluate the efficacy of this method of sterilization, a subsequent polymerase chain reaction was carried out for 30 cycles in the presence of α-^32P-dCTP. PCR product was then quantitated by running gels (see above), cutting the bands (detected by autoradiography) and counting the bands on a commercial scintillation counter. […]

calf thymus DNA = assay: Binding of photoproduct to nucleic acid (dark reaction after pre-irradiation)
Experimental: The nucleic acid binding properties of photoproduct were investigated with calf thymus DNA. 200 μg/ml of ^3H-AMDMIP (1×10^5 CPM/ml) in Taq buffer was irradiated at room temperature with either the CE-III device or the PTI device. This irradiation was performed for 15 minutes in the absence of nucleic acid. Following the irradiations, 200 μl of the irradiated solution was mixed with 200 μl of 1000 μg/ml DNA solution in Taq buffer. Several identical samples were prepared in this manner. One set of samples was allowed to react with the DNA for 2 hours at room temperature. The other set of samples was subjected to 30 cycles of heating and cooling by placing the samples in a thermal cycler [Perkin-Elmer Cetus DNA Thermal Cycler (Part No. N8010150); each cycle involved 93° C. for 30 seconds, 55° C. for 30 seconds and 72° C. for 1 minute]. When the DNA reactions were complete, all samples were analyzed for DNA-associated tritium counts (CPM) by following the flow chart outlined in FIG. 17.
The DNA-associated counts are given in terms of adducts per 100 base pairs in Table 10. For calculation purposes, these adducts are reported as if they represented monomers of AMDMIP. Regardless of the accuracy of this approximation, the process of irradiating ^3H-AMDMIP clearly results in a tritiated product which associates (i.e. binds) with DNA in the absence of subsequent activating wavelengths of electromagnetic radiation. The extent of the association is shown in Table 10 to depend upon the reaction conditions.

human placental DNA = assay: PCR in presence of AMDMIP and DMSO co-solvent; assay type: biochemical; settings: AMDMIP 200 μg/ml
Experimental: In this example, the effect of DMSO on PCR amplification in the presence of high concentrations of sterilizing compound (AMDMIP) was investigated. Samples were prepared for PCR which contained 1 μg of human placental DNA either with or without (unirradiated) AMDMIP (200 μg/ml). The samples were amplified 30 cycles under standard PCR conditions in the presence of 0%, 1%, 5% or 10% DMSO. The reaction mix contained α-^32P-dCTP. Following amplification, the samples were analyzed by PAGE (data not shown).

With `Cc1oc2ccc3c(C)cc(=O)oc3c2c1CN` [AMDMIP, 4′-Aminomethyl-4,5′-dimethylisopsoralen] the “sterilization of PCR (Example 52)” value (HIV 115-mer PCR product; AMDMIP irradiated in CE-III device 15 minutes) was “extensive sterilization”, the “sterilization of PCR (Example 52)” value (HIV 115-mer PCR product; AMDMIP irradiated in PTI device 15 minutes) was “little sterilization” and the “sterilization of PCR (Example 52)” value (HIV 115-mer PCR product; unirradiated AMDMIP) was “PCR product is clearly evident”. For the same compound, the “sterilization of PCR” value (HIV 115-mer PCR product; unirradiated compound at 50, 100, 200, 300 μg/ml) was “no sterilization”, the “ADDUCTS PER 1000 BASE PAIRS” value (calf thymus DNA; device CE-II, pre-irradiated 15 mins. without nucleic acid, dark reaction room temp.) was 4.4 and the “ADDUCTS PER 1000 BASE PAIRS” value (calf thymus DNA; device CE-III, pre-irradiated 15 mins. without nucleic acid, dark reaction thermally cycled) was 24.3. For the same compound, the “ADDUCTS PER 1000 BASE PAIRS” value (calf thymus DNA; device PTI, pre-irradiated 15 mins. without nucleic acid, dark reaction thermally cycled) was 5.7, the “ADDUCTS PER 1000 BASE PAIRS” value (calf thymus DNA; no irradiation, dark reaction room temp. 2 hours) was 1.1 and the “ADDUCTS PER 1000 BASE PAIRS” value (calf thymus DNA; no irradiation, dark reaction thermally cycled 30 cycles) was 0.9. For the same compound, the “product band CPM” value (human placental DNA; 0% DMSO) was 2500 CPM, the “product band CPM” value (human placental DNA; 1% DMSO) was 2800 CPM and the “product band CPM” value (human placental DNA; 5% DMSO) was 86,000 CPM. The “product band CPM” value (human placental DNA; 10% DMSO) was 102,000 CPM and the “amplification in presence of unirradiated AMDMIP” value (human placental DNA; no DMSO, 30 cycles) was “virtually no detectable amplification product”.
